From patent US8703483B2, “Reagents and methods for using human embryonic stem cells to evaluate toxicity of pharmaceutical compounds and other chemicals” (Wisconsin Alumni Research Foundation, priority 2006, dated 2014)

Key:
[1] = supplementation prior to pregnancy; cited from earlier work
[2] = system: human embryonic stem cells; assay: Metabolite profiling (LC/ESI-TOF mass spectrometry) of extracellular media of hESCs treated with alcohol; type: cell-based; conditions: for Putative kynurenine (exact neutral mass 208.0816) upregulation: day four
Text: Binned masses were annotated in silico by querying the neutral masses in several different databases. These databases included Metlin, Biological Magnetic Resonance Data Bank (BMRB), NIST Chemistry WebBook, and the Human Metabolome Database. A mass was considered identified when its neutral mass was within 10 ppm of a known compound annotated in one of the databases listed above.

[3] = system: undifferentiated human embryonic stem cells (H1 and H9 hESC); assay: Metabolite profiling (LC/ESI-TOF-MS) of supernatant of hESCs treated with valproate; type: cell-based
Protocol: Masses were binned together if they were within 10 ppm and eluted within a 2 minutes retention time window. […] Binning of the data is required for statistical analysis and comparison of masses across the entire experiment. If multiple peaks with the same mass at the same retention time within a single sample were detected by Mass Hunter, they were averaged to assist data analysis.
As used herein, a mass was considered to be the same across LC/ESI-TOF-MS runs using a simple algorithm that first sorts the data by mass and retention time. […] If a series of measurements fit this definition it was considered to be from the same compound. If either the mass or the retention time varied by more than the limits listed above it was considered to be a different compound and given a new unique designation.

[4] = system: H1/NIH code WA01 hES cells; assay: Quantitative real-time PCR of epigenetic regulators and developmental genes in VPA-treated hESCs; type: cell-based, human; conditions: 1 mM VPA treated
Protocol: Treated and control H1/NIH code WA01 hES cells (passage 41) were analyzed by real-time PCR, and each treatment group was paired with a corresponding control group that received the standard growth media combination of CM+bFGF without VPA. In these studies, total cellular RNA was extracted from cells harvested at 24 hours (24 H), 4 days (4 D) and 8 days (EC) using the RNA Easy Kit (Qiagen, Valencia, Calif.) according to the manufacturer's instructions.
Expression levels of candidate test genes and a housekeeping gene (Beta-2-microglobulin) were evaluated by quantitative real-time PCR using a DNA Engine-Opticon 2 Detection System (MJ Research, Watertown, Mass.). The housekeeping gene acts as an internal control for normalization of RNA levels. The primers used for real-time PCR reactions were designed using Beacon Designer software (Premier Biosoft International, Palo Alto, Calif.). RNA was reverse transcribed using iScript cDNA Synthesis kit (Bio-Rad, Hercules, Calif.), wherein each cDNA synthesis reaction (20 μL) included 4 μL of 5× iScript reaction mix, 1 μL of iScript reverse transcriptase, and 2 μL of RNA. PCR was performed on cDNA in PCR reaction mixtures (25 μL) each containing 12.5 μL of Supermix (contains dNTPs, Taq DNA polymerase, SYBR Green I, and fluorescein), 250 nM forward primer, 250 nM reverse primer, and 1.6 μL RT-PCR products. Melting curve analysis and agarose gel electrophoresis were performed after real-time PCR reaction to monitor PCR specificity, wherein PCR products were detected with SYBR Green I using the iQ SYBR Green Supermix kit (Bio-Rad).
Quantifying the relative expression of real-time PCR was performed using the 2-ΔΔCt method (Livak & Schmittgen, 2001, Methods 25:402-8), and a general linear model was employed to fit the expression data. The PROC GLM procedure in SAS (version 8.2; SAS Institute, Cary, N.C.) was used to estimate least squares means in expression between treated and untreated hESCs and P<0.05 was considered statistically significant
Real-time PCR was conducted on samples from 24 hours (24 H), 4 days (4 D) and 8 days (EC) after VPA treatment to investigate expression levels of epigenetic regulators (such as DNA methyltransferase-1, DNMT-1, BMI-1, EED) and critical transcription factors responsible for embryonic patterning and neurodevelopment (RUNX2, BMP7, FGF8, CBX2, GLI3, SSH and SP8) in human embryonic stem cells.

[5] = system: neuronal precursors derived from hESCs; assay: Metabolite profiling of neural precursors derived from hESCs treated with valproate; type: cell-based, human; conditions: 1 mM valproate
Text: Metabolomic assessment of teratogens on embryonic development is not limited exclusively to hESCs.

[6] = system: human embryonic stem cells; assay: Viability and pluripotency (Oct-4, morphology) of hESCs after valproate exposure; type: cell-based; conditions: hESCs remained viable for multiple passages following exposure
[7] = 0.3% alcohol, four days, p<0.05

For Nc1nc2ncc(CNc3ccc(C(=O)N[C@@H](CCC(=O)O)C(=O)O)cc3)nc2c(=O)[nH]1 [Folic acid], the “Reduction of the incidence of spina bifida” value [1] is listed as 70%.
With CCO [ethanol, reference compound] the “8-methoxykynurenate (219.0532) change” value ([2]; 0.1% alcohol, four days, p<0.05) was “upregulated”, the “Putative kynurenine (exact neutral mass 208.0816) upregulation” value ([2]; 0.1% treatment, p=0.001) was “three-fold” and the “Compounds significantly different (p<0.05) in at least one treatment” value ([2]; 0.1 and 0.3% ethanol, of 49,481 mass signals) was 1,860 compounds. The “5-hydroxy-L-tryptophan (220.0848) change in comparison to untreated controls” value [2, 7] was “significant downregulation”, the “8-methoxykynurenate (219.0532) change” value [2, 7] was “upregulated” and the “Putative kynurenine (exact neutral mass 208.0816) upregulation” value ([2]; 0.3% treatment, p=0.002) was “three-fold”.
In the case of CCCC(CCC)C(=O)O [valproate], the “Compounds with statistically-significant differences in at least one time point” value ([3]; 22 μM valproate, of 3,241 mass signals (3%)) is reported as 110 compounds, the “Small molecules absent in treated groups” value ([3]; VPA, 24 hours, vs untreated controls) is reported as “approximately 40” and the “BMI-1 gene expression level (target gene/Beta-2-Microglobulin)” value ([4]; 4 D) is reported as 0.112. The “BMP7 gene expression level (target gene/Beta-2-Microglobulin)” value ([4]; 4 D) was 0.342, the “CBX2 gene expression level (target gene/Beta-2-Microglobulin)” value ([4]; 4 D) was 1.1881 and the “DNMT1 gene expression level (target gene/Beta-2-Microglobulin)” value ([4]; 4 D) was 0.002. For the same compound, the “EED gene expression level (target gene/Beta-2-Microglobulin)” value ([4]; 4 D) was 0.185, the “GLI3 gene expression level (target gene/Beta-2-Microglobulin)” value ([4]; 4 D) was 0.774 and the “H19 gene expression level (target gene/Beta-2-Microglobulin)” value ([4]; 4 D) was 0.846. For the same compound, the “RUNX2 gene expression level (target gene/Beta-2-Microglobulin)” value ([4]; 4 D) was 4.020, the “SP8 gene expression level (target gene/Beta-2-Microglobulin)” value ([4]; 4 D) was 1.703 and the “Shh gene expression level (target gene/Beta-2-Microglobulin)” value ([4]; 4 D) was 0.533. For the same compound, the “BMI-1 gene expression level (target gene/Beta-2-Microglobulin)” value ([4]; 24 H) was 0.252, the “BMP7 gene expression level (target gene/Beta-2-Microglobulin)” value ([4]; 24 H) was 0.093 and the “CBX2 gene expression level (target gene/Beta-2-Microglobulin)” value ([4]; 24 H) was 0.245. For the same compound, the “DNMT1 gene expression level (target gene/Beta-2-Microglobulin)” value ([4]; 24 H) was 0.624, the “EED gene expression level (target gene/Beta-2-Microglobulin)” value ([4]; 24 H) was 0.342 and the “FGF8 gene expression level (target gene/Beta-2-Microglobulin)” value ([4]; 24 H) was 0.801. For the same compound, the “GLI3 gene expression level (target gene/Beta-2-Microglobulin)” value ([4]; 24 H) was 0.015, the “H19 gene expression level (target gene/Beta-2-Microglobulin)” value ([4]; 24 H) was 0.006 and the “RUNX2 gene expression level (target gene/Beta-2-Microglobulin)” value ([4]; 24 H) was 1.769. For the same compound, the “SP8 gene expression level (target gene/Beta-2-Microglobulin)” value ([4]; 24 H) was 0.235, the “Shh gene expression level (target gene/Beta-2-Microglobulin)” value ([4]; 24 H) was 0.562 and the “BMI-1 gene expression level (target gene/Beta-2-Microglobulin)” value ([4]; EC (8 days)) was 1.071. For the same compound, the “BMP7 gene expression level (target gene/Beta-2-Microglobulin)” value ([4]; EC (8 days)) was 1.664, the “CBX2 gene expression level (target gene/Beta-2-Microglobulin)” value ([4]; EC (8 days)) was 1.946 and the “DNMT1 gene expression level (target gene/Beta-2-Microglobulin)” value ([4]; EC (8 days)) was 1.124. The “EED gene expression level (target gene/Beta-2-Microglobulin)” value ([4]; EC (8 days)) was 1.769, the “FGF8 gene expression level (target gene/Beta-2-Microglobulin)” value ([4]; EC (8 days)) was 0.837 and the “GLI3 gene expression level (target gene/Beta-2-Microglobulin)” value ([4]; EC (8 days)) was 1.918. The “H19 gene expression level (target gene/Beta-2-Microglobulin)” value ([4]; EC (8 days)) was 2.756, the “RUNX2 gene expression level (target gene/Beta-2-Microglobulin)” value ([4]; EC (8 days)) was 2.434 and the “SP8 gene expression level (target gene/Beta-2-Microglobulin)” value ([4]; EC (8 days)) was 5.808. For the same compound, the “Compounds differentially secreted in treated neuronal precursors versus control” value [5] was “Approximately 135 compounds” and the “Effect of treatment on hESC viability” value [6] was “not detrimental”.
